We go through one molecule from patent publication US20260092086A1, “ANTIMICROBIAL LASSO PEPTIDES” (priority 2022, published 2026).

Entries after “also recorded” stand apart in the source; their conditions may differ. Where a SMILES comes first, the peptide text is derived from it.

Data set [1] deals with Enterobacter hormaechei ATCC 700323. Description: Spot-on-lawn assay in M63 agar. Format: cell-based. The note with it: purified cloacaenodin in water. As to the method:
(§1) Cloacaenodin was evaluated against several common laboratory strains as well as commercially acquired strains using a spot-on-lawn assay.^45 Strains were streaked out onto LB agar plates and incubated overnight at their recommended temperatures. A single colony was then used to inoculate an overnight culture in 5 mL of LB broth. After shaking at 250 rpm at the recommended temperature for each strain, 50 μL of the overnight culture was used to inoculate 5 mL of LB broth (volume ratio 1:100). These cultures were grown for a few hours until they reached the exponential phase (OD600˜0.4-0.6) before being added to 10 mL of soft M63 agar at a final cell density of 10^7 CFUs/mL, or 10^8 CFUs total in 10 mL. The M63 soft agar was composed of 2 g/L of (NH4)2SO4 (EMD MilliporeSigma), 13.6 g/L of KH2PO4 (Fisher), 40 mg/L of each of the 20 common amino acids, 0.2% glucose (Sigma), 0.00005% w/v thiamine hydrochloride (Sigma), and 0.65% w/v bacteriological-grade agar (Apex Bioresearch). […] Upon solidification, 10 μL of purified cloacaenodin in water at two-fold dilutions were then spotted onto the agar and allowed to dry. The plates were incubated overnight at the strains' recommended temperatures and analyzed the next morning for activity. The MIC is defined as the last dilution where a spot was visible.

Data set [2] deals with Enterobacter kobei BAA-260. Kind of data set: Spot-on-lawn assay in M63 agar. The data set is classed as cell-based. The note with it: purified cloacaenodin in water. The method, then:
as §1

The subject of data set [3] is Enterobacter nimipressuralis DSM 18955. Kind of data set: Spot-on-lawn assay in M63 agar. The data set is classed as cell-based. The method, then: as §1
Data set [4] has as its system Klebsiella aerogenes ATCC 13048. Kind of data set: Spot-on-lawn assay in M63 agar. Format: cell-based. Conditions: purified cloacaenodin in water. The method, then: as §1
The test system of data set [5] is Salmonella enterica serovar Newport. Description: Spot-on-lawn assay in M63 agar. The data set is classed as cell-based. The note with it: purified cloacaenodin in water. The method, then:
as §1

The test system of data set [6] is Escherichia coli XL-1 Blue. Kind of data set: Intracellular toxicity: IPTG-induced expression from plasmid lacking cloD. Format: cell-based. The note with it: IPTG induction. As to the method: After characterizing the structure and proteolytic resistance of cloacaenodin, cloacaenodin's inhibition of bacterial growth was tested. As a preliminary test of antimicrobial activity, a version of the expression plasmid from which the cloD gene was removed was cloned, so that the lasso peptide could not be exported by the Escherichia coli upon isopropyl β-D-1-thiogalactopyranoside (IPTG)-induced expression.
Cloacaenodin variants were constructed using site-directed mutagenesis. Mutant precursor genes were amplified from the wild-type precursor in pAK2 using mutagenic primers. Following PCR amplification of the mutated precursor gene, the purified PCR product was digested and ligated into pAK2 with the EcoRI and HindIII restriction sites. For the pMP3 plasmid for deletion of the cloD gene, the D gene was first disrupted by digestion of pAK2 with BamHI and NcoI, which removed the entire cloD gene and the C-terminal portion of the cloC gene. The digested plasmid was then ligated with an insert that restored the C-terminal portion of the cloC gene. All mutants were sequence confirmed by Genewiz (now Azenta) before use.

Data set [7] can be described thus: Heating assay at 95° C., LC-MS. Format: physicochemical. Conditions: 1.5 hours. The method, then: The threaded nature of the collected cloacaenodin sample was next sought to be verified, because the threaded structure is crucial to the bioactivity of lasso peptides.^50 Heat treatment of certain lasso peptides leads to their unthreading: the unthreaded species often elutes differently than the threaded peptide.^48,49 We performed a heating assay at 95° C. and noticed that after 1.5 hours ˜5% of cloacaenodin eluted at around 12.4 min instead of 10.5 min (FIGS. 7A-7B). Upon treatment with carboxypeptidase^48,49, this later eluting peak was eliminated, and various earlier-eluting peaks consistent with C-terminal truncations of 6, 9, or 10 amino acids were then observed. These truncations were not observed for the unheated cloacaenodin sample when treated with carboxypeptidase (FIGS. 7A-8B). […] This unthreaded variant in the extract may have formed because of thermal unthreading during expression and purification, exposure to organic solvents during purification, or both. To ensure that the sample we collected from the HPLC remained stable, we froze the sample immediately upon collection until lyophilization, such that the peptide was minimally kept in solution.

The nature of data set [8]: Stability of NMR sample kept at 4° C., LC-MS before and after acquisition. Format: physicochemical. The note with it: 95:5 H2O:D2O. As to the method:
The structure of cloacaenodin in water was determined using two-dimensional (2D) nuclear magnetic resonance (NMR) analysis, a technique that has been successfully used to show the threaded shape of lasso peptides.^51 The possibility of cloacaenodin unthreading during the NMR acquisition was addressed by keeping the sample at 4° C. throughout acquisition. […] As an additional control, one-dimensional (1D) NMR spectra were acquired in between each 2D NMR spectrum acquisition to ensure stability of the sample (FIG. 12).
NMR studies were performed at the Princeton University Department of Chemistry NMR Facilities using a Bruker Avance III HD 800 MHz NMR spectrometer. Purified cloacaenodin was prepared at a concentration of 6.7 mg/mL (2.6 mM) in 95:5 H2O:D2O. The NMR spectra were acquired at 4° C. to minimize any cloacaenodin unthreading. A ^1H-^1H TOCSY spectrum at a mixing time of 80 ms was acquired, as well as 1H-1H NOESY spectra at 150 ms and 300 ms. Water suppression was used in the collection of all NMR data. To verify that the lasso peptide was not undergoing unthreading, 1D 1H NMR data were collected in between each 2D NMR acquisition and analyzed to see that the 1D spectra stayed consistent. […]

In the case of `CC[C@H](C)[C@@H]1NC(=O)[C@H](CCCNC(=N)N)NC(=O)[C@H](CC(=O)O)NC(=O)[C@H](C(C)C)NC(=O)[C@H](CO)NC(=O)[C@H](Cc2c[nH]cn2)NC(=O)CNC(=O)CC[C@@H](C(=O)N[C@@H](Cc2ccc(O)cc2)C(=O)N[C@@H](Cc2ccccc2)C(=O)NCC(=O)N2CCC[C@H]2C(=O)N2CCC[C@H]2C(=O)NCC(=O)N[C@@H](CC(C)C)C(=O)N2CCC[C@H]2C(=O)NCC(=O)N2CCC[C@H]2C(=O)N[C@H](C(=O)N[C@@H](CC(C)C)C(=O)N[C@@H](Cc2ccccc2)C(=O)N[C@@H](Cc2ccc(O)cc2)C(=O)N[C@@H](CO)C(=O)O)C(C)C)NC(=O)[C@@H]2CCCN2C1=O` [cloacaenodin] (HELM PEPTIDE1{G.H.S.V.D.R.I.P.E.Y.F.G.P.P.G.L.P.G.P.V.L.F.Y.S}$PEPTIDE1,PEPTIDE1,1:R1-9:R3$$$V2.0; C-terminus assumed), the “antimicrobial activity (zones of inhibition)” value in data set [1] is “no observed activity”; in data set [2], “no observed activity”; in data set [3] (spot-on-lawn, M63 agar, purified cloacaenodin in water) it was “zones of inhibition in the low micromolar range”; in data set [4], “no observed activity”; in data set [5] it was “no observed activity”. In addition, the “strain susceptible to cloacaenodin” value in data set [3] (Lelliottia nimipressuralis DSM 18955) is reported as “* Lelliottia nimipressuralis”. Moreover, in data set [6], the “intracellular toxicity (growth of E. coli on IPTG without CloD)” value was “colonies did not appear; also recorded: can no longer grow”. Besides, the “fraction eluting as later (unthreaded) peak after heating” value in data set [7] is recorded as about 5%. Also, the “threaded state after NMR acquisition” value in data set [8] is on record as “remained threaded”.
